In patent US20260109712A1, “RIFAMYCINS FOR NONTUBERCULOUS MYCOBACTERIA” (priority 2022, published 2026):
Values after ≈ are worked out from the molar mass of the structure shown.

Legend:
Δarr M. abscessus = assay: MIC assay, isogenic arr-deleted strain; format: cell-based, Mycobacterium abscessus; settings: Table 10
Description: (§1) MIC determination was carried out in 96-well plate format as previously described.^[13-14] 96-well plates were initially set up with 100 μL of 7H9 per well. For each compound, a ten-point two-fold dilution series starting at twice the desired highest concentration was dispensed onto the 96-well plates using a Tecan D300e Digital Dispenser, with the DMSO concentration normalized to 2%. M. abscessus culture grown to mid-log phase (OD600=0.4-0.6) was diluted to OD600=0.1 (1×10^7 CFU/mL). […] Untreated control wells are included on each plate that contain bacteria suspension and 1% DMSO. Plates were sealed with parafilm, stored in boxes with wet paper towels and incubated at 37° C. with shaking (110 RPM). Plates were incubated for 3 days. To determine growth, OD600 was measured using a Tecan Infinite M200 plate reader on Day 0 and Day 3. Two biological replicates were performed. Clarithromycin was included in each experiment as a positive control.
(§2) For each well on the 96-well plate, bacterial growth was calculated by subtracting the Day 0 OD600 value from the Day 3 OD600 value. […] For compound-containing wells, percentage growth was calculated by dividing their growth values by the average drug-free bacterial growth for the compound series and multiplying by 100. For each compound series, we plotted percentage growth versus compound concentration.

[1] = Plasma protein binding assay (rapid equilibrium dialysis); format: in vitro ADME
Description: DMSO stocks were spiked into plasma to a concentration of 10,000 ng/mL. 200 μL of spiked plasma was pipetted into the sample chamber of the rapid equilibrium dialysis (RED) cartridge. 350 μL of PBS was added to the adjacent cartridge. The plate containing the RED was sealed and incubated at 37° C. on the thermomixer at 300 RPM for 4 h. After incubation, 50 μL aliquots of plasma were removed and added to 50 μL of blank plasma in a deep well plate (1:1). Similarly, 50 μL aliquots of PBS were removed and added to 50 μL of blank plasma. This created an identical matrix between buffer and non-buffer samples. Samples were processed and quantified as specified in the LC-MS/MS analytical method.

M. abscessus ATCC 19977 = assay: MIC assay in 96-well plate format, wild-type strain; format: cell-based, Mycobacterium abscessus; settings: for MICWT: Table 10; for MIC: Table 15, heterocyclic aromatic carbamates, read-out: WT Mab MIC
Description: as §1, §2

Row | SMILES | MICΔorr (Δarr M. abscessus) | plasma unbound fraction ([1]; Table 10) | MICWT (M. abscessus ATCC 19977) | ƒu [1] | plasma unbound fraction ([1]; plasma) | MIC (M. abscessus ATCC 19977)
1 | CO[C@H]1/C=C/O[C@@]2(C)Oc3c(C)c(O)c4c(c3C2=O)C2=NC3(CCN(CC(C)C)CC3)NC2=C(NC(=O)/C(C)=C/C=C/[C@H](C)[C@H](O)[C@@H](C)[C@@H](O)[C@@H](C)[C@H](OC(=O)c2ccccc2F)[C@@H]1C)C4=O [UMN23] | 0.058 µM | 0.05% | 0.06 µM |  |  | 
2 | CO[C@H]1/C=C/O[C@@]2(C)Oc3c(C)c(O)c4c(c3C2=O)C2=NC3(CCN(CC(C)C)CC3)NC2=C(NC(=O)/C(C)=C/C=C/[C@H](C)[C@H](O)[C@@H](C)[C@@H](O)[C@@H](C)[C@H](OC(=O)c2ccccc2Cl)[C@@H]1C)C4=O [UMN24] | 0.049 µM | 0.06% | 0.043 µM |  |  | 
3 | COc1ccccc1C(=O)O[C@H]1[C@H](C)[C@H](O)[C@H](C)[C@@H](O)[C@@H](C)/C=C/C=C(\C)C(=O)NC2=C3NC4(CCN(CC(C)C)CC4)N=C3c3c(c(O)c(C)c4c3C(=O)[C@@](C)(O/C=C/[C@H](OC)[C@H]1C)O4)C2=O [UMN29] | 0.03 µM | 0.22% | 0.03 µM |  |  | 
4 | CO[C@H]1/C=C/O[C@@]2(C)Oc3c(C)c(O)c4c(c3C2=O)C2=NC3(CCN(CC(C)C)CC3)NC2=C(NC(=O)/C(C)=C/C=C/[C@H](C)[C@H](O)[C@@H](C)[C@@H](O)[C@@H](C)[C@H](OC(=O)Nc2cccc(C)c2)[C@@H]1C)C4=O [UMN35] | 0.036 µM | 0.05% | 0.034 µM |  |  | 
5 | CO[C@H]1/C=C/O[C@@]2(C)Oc3c(C)c(O)c4c(c3C2=O)C2=NC3(CCN(CC(C)C)CC3)NC2=C(NC(=O)/C(C)=C/C=C/[C@H](C)[C@H](O)[C@@H](C)[C@@H](O)[C@@H](C)[C@H](OC(=O)Nc2ccccc2-c2ccccc2)[C@@H]1C)C4=O [UMN36] | 0.05 µM |  | 0.035 µM | 0.02% | 0.02% | 0.035 µM (≈ 0.035 µg/mL)
6 | COc1ccc(NC(=O)O[C@H]2[C@H](C)[C@H](O)[C@H](C)[C@@H](O)[C@@H](C)/C=C/C=C(\C)C(=O)NC3=C4NC5(CCN(CC(C)C)CC5)N=C4c4c(c(O)c(C)c5c4C(=O)[C@@](C)(O/C=C/[C@H](OC)[C@H]2C)O5)C3=O)cc1 [UMN37] | 0.034 µM | 0.15% | 0.031 µM |  |  | 
7 | CO[C@H]1/C=C/O[C@@]2(C)Oc3c(C)c(O)c4c(c3C2=O)C2=NC3(CCN(CC(C)C)CC3)NC2=C(NC(=O)/C(C)=C/C=C/[C@H](C)[C@H](O)[C@@H](C)[C@@H](O)[C@@H](C)[C@H](OC(=O)Nc2ccccc2C)[C@@H]1C)C4=O [UMN39] | 0.017 µM |  | 0.014 µM | 0.1% | 0.13% | 0.014 µM (≈ 0.0131 µg/mL)
8 | CO[C@H]1/C=C/O[C@@]2(C)Oc3c(C)c(O)c4c(c3C2=O)C2=NC3(CCN(CC(C)C)CC3)NC2=C(NC(=O)/C(C)=C/C=C/[C@H](C)[C@H](O)[C@@H](C)[C@@H](O)[C@@H](C)[C@H](OC(=O)NCc2cc(-c3ccccc3)no2)[C@@H]1C)C4=O [UMN40] | 0.03 µM | 0.12% | 0.035 µM |  |  | 
9 | COc1cccc(NC(=O)O[C@H]2[C@H](C)[C@H](O)[C@H](C)[C@@H](O)[C@@H](C)/C=C/C=C(\C)C(=O)NC3=C4NC5(CCN(CC(C)C)CC5)N=C4c4c(c(O)c(C)c5c4C(=O)[C@@](C)(O/C=C/[C@H](OC)[C@H]2C)O5)C3=O)c1 [UMN42] | 0.03 µM | 0.09% | 0.025 µM |  |  | 
10 | CO[C@H]1/C=C/O[C@@]2(C)Oc3c(C)c(O)c4c(c3C2=O)C2=NC3(CCN(CC(C)C)CC3)NC2=C(NC(=O)/C(C)=C/C=C/[C@H](C)[C@H](O)[C@@H](C)[C@@H](O)[C@@H](C)[C@H](OC(=O)Nc2ccc(C)cc2)[C@@H]1C)C4=O [UMN43] | 0.03 µM | 0.05% | 0.05 µM |  |  | 
11 | CO[C@H]1/C=C/O[C@@]2(C)Oc3c(C)c(O)c4c(c3C2=O)C2=NC3(CCN(CC(C)C)CC3)NC2=C(NC(=O)/C(C)=C/C=C/[C@H](C)[C@H](O)[C@@H](C)[C@@H](O)[C@@H](C)[C@H](OC(=O)c2nccs2)[C@@H]1C)C4=O [UMN45] | 0.017 µM | 1.89% | 0.017 µM |  |  | 
12 | CO[C@H]1/C=C/O[C@@]2(C)Oc3c(C)c(O)c4c(c3C2=O)C2=NC3(CCN(CC(C)C)CC3)NC2=C(NC(=O)/C(C)=C/C=C/[C@H](C)[C@H](O)[C@@H](C)[C@@H](O)[C@@H](C)[C@H](OC(=O)Nc2nc(-c3ccccc3)cs2)[C@@H]1C)C4=O [UMN57] | 0.25 µM |  | 0.15 µM |  |  | 
13 | CO[C@H]1/C=C/O[C@@]2(C)Oc3c(C)c(O)c4c(c3C2=O)C2=NC3(CCN(CC(C)C)CC3)NC2=C(NC(=O)/C(C)=C/C=C/[C@H](C)[C@H](O)[C@@H](C)[C@@H](O)[C@@H](C)[C@H](OC(=O)N2Cc3ccccc3C2)[C@@H]1C)C4=O [UMN65] | 0.052 µM |  | 0.11 µM |  |  | 
14 | CO[C@H]1/C=C/O[C@@]2(C)Oc3c(C)c(O)c4c(c3C2=O)C2=NC3(CCN(CC(C)C)CC3)NC2=C(NC(=O)/C(C)=C/C=C/[C@H](C)[C@H](O)[C@@H](C)[C@@H](O)[C@@H](C)[C@H](OC(=O)N2CCN(C(C)C)CC2)[C@@H]1C)C4=O [UMN66] | 0.056 µM |  | 0.17 µM |  |  | 
15 | CO[C@H]1/C=C/O[C@@]2(C)Oc3c(C)c(O)c4c(c3C2=O)C2=NC3(CCN(CC(C)C)CC3)NC2=C(NC(=O)/C(C)=C/C=C/[C@H](C)[C@H](O)[C@@H](C)[C@@H](O)[C@@H](C)[C@H](OC(=O)N2CCC(N(C)C)CC2)[C@@H]1C)C4=O [UMN74] | 0.13 µM |  | 0.12 µM |  |  | 
16 | CO[C@H]1/C=C/O[C@@]2(C)Oc3c(C)c(O)c4c(c3C2=O)C2=NC3(CCN(CC(C)C)CC3)NC2=C(NC(=O)/C(C)=C/C=C/[C@H](C)[C@H](O)[C@@H](C)[C@@H](O)[C@@H](C)[C@H](OC(=O)N2CCC(C)(C)C2)[C@@H]1C)C4=O [UMN75] | 0.035 µM |  | 0.13 µM |  |  | 
17 | CO[C@H]1/C=C/O[C@@]2(C)Oc3c(C)c(O)c4c(c3C2=O)C2=NC3(CCN(CC(C)C)CC3)NC2=C(NC(=O)/C(C)=C/C=C/[C@H](C)[C@H](O)[C@@H](C)[C@@H](O)[C@@H](C)[C@H](OC(=O)N2CCOCC2)[C@@H]1C)C4=O [UMN78] | 0.040 µM |  | 0.16 µM |  |  | 
18 | CO[C@H]1/C=C/O[C@@]2(C)Oc3c(C)c(O)c4c(c3C2=O)C2=NC3(CCN(CC(C)C)CC3)NC2=C(NC(=O)/C(C)=C/C=C/[C@H](C)[C@H](O)[C@@H](C)[C@@H](O)[C@@H](C)[C@H](OC(=O)N2CCCC2)[C@@H]1C)C4=O [UMN79] | 0.030 µM |  | 0.18 µM |  |  | 
19 | COC(=O)Cn1cc(CNC(=O)O[C@H]2[C@H](C)[C@H](O)[C@H](C)[C@@H](O)[C@@H](C)/C=C/C=C(\C)C(=O)NC3=C4NC5(CCN(CC(C)C)CC5)N=C4c4c(c(O)c(C)c5c4C(=O)[C@@](C)(O/C=C/[C@H](OC)[C@H]2C)O5)C3=O)nn1 [UMN84] | 0.15 µM |  | 0.13 µM |  |  | 
20 | CO[C@H]1/C=C/O[C@@]2(C)Oc3c(C)c(O)c4c(c3C2=O)C2=NC3(CCN(CC(C)C)CC3)NC2=C(NC(=O)/C(C)=C/C=C/[C@H](C)[C@H](O)[C@@H](C)[C@@H](O)[C@@H](C)[C@H](OC(=O)N2CCNCC2)[C@@H]1C)C4=O [UMN86] | 0.10 µM |  | 0.11 µM |  |  | 
21 | CO[C@H]1/C=C/O[C@@]2(C)Oc3c(C)c(O)c4c(c3C2=O)C2=NC3(CCN(CC(C)C)CC3)NC2=C(NC(=O)/C(C)=C/C=C/[C@H](C)[C@H](O)[C@@H](C)[C@@H](O)[C@@H](C)[C@H](OC(=O)NC2CC(C)(C)N(Cc3ccccc3)C(C)(C)C2)[C@@H]1C)C4=O [UMN87] | 0.30 µM |  | 0.23 µM |  |  | 
22 | CO[C@H]1/C=C/O[C@@]2(C)Oc3c(C)c(O)c4c(c3C2=O)C2=NC3(CCN(CC(C)C)CC3)NC2=C(NC(=O)/C(C)=C/C=C/[C@H](C)[C@H](O)[C@@H](C)[C@@H](O)[C@@H](C)[C@H](OC(=O)NC2CC(C)(C)N(C)C(C)(C)C2)[C@@H]1C)C4=O [UMN91] | 0.10 µM |  | 0.11 µM |  |  | 
